Data as given in ChEMBL document CHEMBL4627376, “Substituted benzyloxytricyclic compounds as retinoic acid-related orphan receptor gamma t (RORγt) agonists” (Bioorg Med Chem Lett, 2020).

Experiments:
[1] = Half life in mouse hepatocytes; type: ADME, cell-based, Hepatocyte
[2] = Stability in mouse liver microsomes assessed as parent compound remaining at 0.5 uM in presence of NADPH by MS/MS analysis; type: ADME, Microsome; settings: read-out: Stability
[3] = Stability in rat liver microsomes assessed as parent compound remaining at 0.5 uM in presence of NADPH by MS/MS analysis; type: ADME, Microsome; settings: read-out: Stability
[4] = Stability in human liver microsomes assessed as parent compound remaining at 0.5 uM in presence of NADPH by MS/MS analysis; type: ADME, Microsome; settings: read-out: Stability
[5] = AUC in C57BL6 mouse at 30 mg/kg, po qd via gavage after 24 hrs by LC-MS/MS analysis; type: ADME, organism-based; design: time < 24 hr, dose 30 mg/kg, route oral; settings: in vivo
[6] = Tmax in C57BL6 mouse at 30 mg/kg, po qd via gavage after 24 hrs by LC-MS/MS analysis; type: ADME, organism-based; settings: in vivo
[7] = Clearance in C57BL6 mouse at 2 mg/kg, iv qd administered as bolus dose after 24 hrs by LC-MS/MS analysis; type: ADME, organism-based; settings: in vivo
[8] = Drug metabolism in mouse hepatocytes assessed as UGT-mediated metabolism by measuring half life; type: ADME, cell-based
[9] = Volume of distribution at steady state in C57BL6 mouse at 2 mg/kg, iv qd administered as bolus dose after 24 hrs by LC-MS/MS analysis; type: ADME, organism-based; settings: in vivo, read-out: Vdss
[10] = Permeability of compound at pH 7.4; type: ADME; settings: not told, read-out: permeability
[11] = Cmax in C57BL6 mouse at 30 mg/kg, po qd via gavage after 24 hrs by LC-MS/MS analysis; type: ADME, organism-based; design: dose 30 mg/kg, route oral; settings: in vivo
[12] = AUC in C57BL6 mouse at 2 mg/kg, iv qd administered as bolus dose after 24 hrs by LC-MS/MS analysis; type: ADME, organism-based; design: time < 24 hr, dose 2 mg/kg, route intravenous; settings: in vivo
[13] = molecular target: T1, Nuclear receptor ROR-gamma (Mus musculus, UniProt P51450); test: Agonist activity at RORgammat in mouse whole blood assessed as induction of IL-17A expression; type: tissue-based
T1 sequence (P51450 whole entry): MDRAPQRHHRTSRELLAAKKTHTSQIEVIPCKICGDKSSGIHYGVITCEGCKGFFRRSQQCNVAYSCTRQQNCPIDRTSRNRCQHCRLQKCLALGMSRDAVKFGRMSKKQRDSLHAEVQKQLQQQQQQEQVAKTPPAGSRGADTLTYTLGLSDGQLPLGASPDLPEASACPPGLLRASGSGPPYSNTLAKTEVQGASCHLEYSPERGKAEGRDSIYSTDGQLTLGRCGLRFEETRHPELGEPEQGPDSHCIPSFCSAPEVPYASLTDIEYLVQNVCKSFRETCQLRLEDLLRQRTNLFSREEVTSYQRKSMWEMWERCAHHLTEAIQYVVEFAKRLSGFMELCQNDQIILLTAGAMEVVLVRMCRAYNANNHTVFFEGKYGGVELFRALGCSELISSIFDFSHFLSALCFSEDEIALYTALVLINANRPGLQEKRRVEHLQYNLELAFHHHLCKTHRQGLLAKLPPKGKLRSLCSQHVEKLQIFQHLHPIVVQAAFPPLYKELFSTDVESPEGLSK

[14] = Drug level in mouse MC38 cells allografted C57BL6 mouse blood at 10 mg/kg, po BID and measured after 24 hrs; type: ADME, organism-based; settings: whole blood, read-out: Drug uptake

O=C(O)[C@H]1CC[C@H](C(=O)N2CC[C@@]3(S(=O)(=O)c4ccc(F)cc4)c4ccc(OCc5c(F)cccc5C(F)(F)F)cc4CC[C@@H]23)CC1
half-life [1]: > 2 h | remaining at 0.5 µM [2]: 100% | remaining at 0.5 µM [3]: 65% | remaining at 0.5 µM [4]: 97% | AUC at 24 h [5]: 103 µM·h | Tmax [6]: 1 h | clearance [7]: 0.546 L/h/kg | half-life [8]: > 2 h | Vd [9]: 1.8 L/kg | Papp [10]: 101 nm/s | Cmax [11]: 38 µM | AUC at 24 h [12]: 5.4 µM·h

O=C(N1CC[C@@]2(S(=O)(=O)c3ccc(F)cc3)c3ccc(OCc4c(F)cccc4C(F)(F)F)cc3CC[C@@H]12)C1(O)CCS(=O)(=O)CC1
remaining at 0.5 µM [2]: 51% | remaining at 0.5 µM [3]: 4% | remaining at 0.5 µM [4]: 1%

O=C([C@H]1CC[C@H](c2nnn[nH]2)CC1)N1CC[C@@]2(S(=O)(=O)c3ccc(F)cc3)c3ccc(OCc4c(F)cccc4C(F)(F)F)cc3CC[C@@H]12
remaining at 0.5 µM [2]: 82% | remaining at 0.5 µM [3]: 67% | remaining at 0.5 µM [4]: 55%

C[C@]1(C(=O)N2CC[C@@]3(S(=O)(=O)c4ccc(F)cc4)c4ccc(OCc5c(F)cccc5C(F)(F)F)cc4CC[C@@H]23)CC[C@H](C(=O)O)CC1
remaining at 0.5 µM [2]: 100% | remaining at 0.5 µM [3]: 48% | remaining at 0.5 µM [4]: 80% | AUC at 24 h [5]: 275 µM·h | Tmax [6]: 0.5 h | clearance [7]: 0.402 L/h/kg | Vd [9]: 1.1 L/kg | Papp [10]: 406 nm/s | Cmax [11]: 61 µM | AUC at 24 h [12]: 6.5 µM·h | EC50 [13]: 0.38 µM | concentration at 24 h [14]: 0.1 µM

O=C(C1CCS(=O)(=O)CC1)N1CC[C@@]2(S(=O)(=O)c3ccc(F)cc3)c3ccc(OCc4c(F)cccc4C(F)(F)F)cc3CC[C@@H]12
remaining at 0.5 µM [2]: 52% | remaining at 0.5 µM [3]: 18% | remaining at 0.5 µM [4]: 1%

CS(=O)(=O)N[C@H]1CC[C@H](C(=O)N2CC[C@@]3(S(=O)(=O)c4ccc(F)cc4)c4ccc(OCc5c(F)cccc5C(F)(F)F)cc4CC[C@@H]23)CC1
remaining at 0.5 µM [2]: 41% | remaining at 0.5 µM [3]: 30% | remaining at 0.5 µM [4]: 2%

O=C(CN1CCS(=O)(=O)CC1)N1CC[C@@]2(S(=O)(=O)c3ccc(F)cc3)c3ccc(OCc4c(F)cccc4C(F)(F)F)cc3CC[C@@H]12
remaining at 0.5 µM [2]: 14% | remaining at 0.5 µM [3]: 14% | remaining at 0.5 µM [4]: 1%

NC(=O)N1CCC(C(=O)N2CC[C@@]3(S(=O)(=O)c4ccc(F)cc4)c4ccc(OCc5c(F)cccc5C(F)(F)F)cc4CC[C@@H]23)CC1
remaining at 0.5 µM [2]: 57% | remaining at 0.5 µM [3]: 33% | remaining at 0.5 µM [4]: 3%

NC(=O)[C@H]1CC[C@H](C(=O)N2CC[C@@]3(S(=O)(=O)c4ccc(F)cc4)c4ccc(OCc5c(F)cccc5C(F)(F)F)cc4CC[C@@H]23)CC1
remaining at 0.5 µM [3]: 39% | remaining at 0.5 µM [4]: 17%
